Laboratory results from US8815857B2 (Boehringer Ingelheim International GmbH, priority 2011, dated 2014).
Values after ≈ are worked out from the molar mass of the structure shown.

Experiments:
[1] = Assessment of solubility: HT solubility in pION buffer, UV spectrophotometry; details: 16-19 h incubation, 1.0% DMSO; for solubility: pION system solution buffer, kinetic from dmso stock
[2] = molecular target: T1, Recombinant human soluble guanylate cyclase (sGC), alpha 1 / beta 1 subunits, heme-free (Homo sapiens, UniProt Q02108+Q02153); assay: Molecular assay: cGMP formation by heme-free recombinant sGC (CisBio cGMP detection kit); format: biochemical; details: 300 pM heme-free sGC, 37° C., 60 min, cGMP readout; read-out: EC50 nM, Activity of Compounds in Molecular Assay
T1 construct: histidine tag (C); made in house; host or cells: Sf9 insect cells (baculovirus coinfection)
T1 sequence (Q02108 1-690 partner): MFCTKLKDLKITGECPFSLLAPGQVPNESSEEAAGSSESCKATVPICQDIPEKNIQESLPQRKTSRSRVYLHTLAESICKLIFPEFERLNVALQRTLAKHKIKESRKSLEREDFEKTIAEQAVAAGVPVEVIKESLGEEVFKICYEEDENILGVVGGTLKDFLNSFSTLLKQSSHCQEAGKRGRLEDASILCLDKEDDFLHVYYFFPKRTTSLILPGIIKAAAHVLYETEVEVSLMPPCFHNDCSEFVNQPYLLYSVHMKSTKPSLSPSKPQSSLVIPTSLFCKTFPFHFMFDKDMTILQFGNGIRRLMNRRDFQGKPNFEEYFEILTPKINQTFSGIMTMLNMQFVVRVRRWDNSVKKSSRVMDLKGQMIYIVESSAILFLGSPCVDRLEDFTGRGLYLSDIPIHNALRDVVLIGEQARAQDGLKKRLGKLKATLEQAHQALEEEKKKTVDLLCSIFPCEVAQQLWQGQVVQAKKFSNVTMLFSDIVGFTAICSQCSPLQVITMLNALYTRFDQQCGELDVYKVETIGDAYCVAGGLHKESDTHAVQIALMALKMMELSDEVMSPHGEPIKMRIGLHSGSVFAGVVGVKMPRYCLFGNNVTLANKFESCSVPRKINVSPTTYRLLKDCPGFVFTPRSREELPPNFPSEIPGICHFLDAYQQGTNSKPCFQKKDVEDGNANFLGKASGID
T1 sequence (Q02153 1-619): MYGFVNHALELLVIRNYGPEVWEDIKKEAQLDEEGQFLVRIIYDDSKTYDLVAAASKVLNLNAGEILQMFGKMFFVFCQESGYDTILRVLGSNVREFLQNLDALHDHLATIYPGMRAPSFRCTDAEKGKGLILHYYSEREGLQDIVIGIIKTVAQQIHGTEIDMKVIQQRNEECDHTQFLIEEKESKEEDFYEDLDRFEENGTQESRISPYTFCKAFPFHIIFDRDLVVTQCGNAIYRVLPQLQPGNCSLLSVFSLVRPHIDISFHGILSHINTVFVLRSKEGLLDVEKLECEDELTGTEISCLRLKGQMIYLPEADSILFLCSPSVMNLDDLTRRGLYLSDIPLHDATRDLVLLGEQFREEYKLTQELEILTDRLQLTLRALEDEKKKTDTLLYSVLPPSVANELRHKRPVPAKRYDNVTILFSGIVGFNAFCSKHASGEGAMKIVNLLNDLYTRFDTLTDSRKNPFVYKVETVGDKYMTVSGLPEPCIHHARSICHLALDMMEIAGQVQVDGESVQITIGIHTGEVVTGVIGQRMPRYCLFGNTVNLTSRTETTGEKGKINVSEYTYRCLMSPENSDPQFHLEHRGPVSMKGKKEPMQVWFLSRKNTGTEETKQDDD
Method in brief: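 Heme-free His-tagged sGC (Sf9-expressed, Tween 20-treated lysate) at 300 pM incubated with compounds (1% DMSO) for 60 min at 37° C in MOPS pH 6.8 with 50 nM GTP, IBMX, TCEP. cGMP quantified by HTRF against calibration curve; EC50 from combined undiluted/diluted values.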

[3] = pH 4.5, pH 4.5, aqueous buffer, Solubility (pH 4.5), pH 4.5 buffer
[4] = pH 7.4, pH 7.4, aqueous buffer, Solubility (pH 7.4), pH 7.4 buffer

Row | SMILES | solubility [1, 3] | solubility [1, 4] | EC50 [2] | Solubility (pH 4.5) ([1]; pH 4.5 buffer)
1 | Cc1ccc(OCc2ccc(C(=O)N3CCC(F)(F)CC3)cc2C)c(-c2csc(N3CCC(C(=O)O)CC3)n2)c1 [Compound 106] | 0.3 µg/mL (≈ 0.527 µM) | > 56 µg/mL | 100 nM | –
2 | Cc1cc(CN2CCS(=O)(=O)CC2)ccc1COc1ccccc1-c1csc(N2CCC(C(=O)O)CC2C)n1 (stereo not drawn) [Compound 108] | 2.3 µg/mL (≈ 4.04 µM) | > 56 µg/mL | 100 nM | –
3 | Cc1cc(C(=O)N2CCCCC2)ccc1COc1ccc(C#N)cc1-c1csc(N2C3CCC2CC(C(=O)O)C3)n1 (stereo not drawn) [Compound 109] | 0.65 µg/mL (≈ 1.14 µM) | > 56 µg/mL | 1500 nM | –
4 | Cc1cc(CN2CCS(=O)(=O)CC2)ccc1COc1ccc(F)cc1-c1csc(N2CC3C(C2)C3C(=O)O)n1 (stereo not drawn) [Compound 110] | 0.35 µg/mL (≈ 0.612 µM) | > 57 µg/mL | 1200 nM | –
5 | Cc1ccc(OCc2ccc(CN(C)CC3CCOCC3)cc2C#N)c(-c2csc(N3CCC(C(=O)O)CC3)n2)c1 [Compound 112] | > 68 µg/mL | > 68 µg/mL | 400 nM | –
6 | Cc1cc(CN2CCOCC2)ccc1COc1ccccc1-c1csc(N2CCC(C(=O)O)CC2C(F)(F)F)n1 (stereo not drawn) [Compound 114] | 30 µg/mL (≈ 52.1 µM) | > 57 µg/mL | 470 nM | –
7 | CNC(=O)C1CCN(Cc2ccc(COc3c(C)cccc3-c3csc(N4CCC(C(=O)O)CC4)n3)c(C)c2)CC1 [Compound 115] | > 57 µg/mL | > 57 µg/mL | 2700 nM | –
8 | Cc1cc(C(=O)N2CCCCC2)ccc1COc1ccc(Cl)cc1-c1csc(N2C3CCC2CC(C(=O)O)C3)n1 (stereo not drawn) [Compound 117] | 0.25 µg/mL (≈ 0.431 µM) | > 57 µg/mL | 30 nM | –
9 | Cc1cc(C(=O)N2CCCCC2)ccc1COc1ccc(Cl)cc1-c1csc(N2CC3CCC(C2)C3C(=O)O)n1 (stereo not drawn) [Compound 118] | 0.3 µg/mL (≈ 0.517 µM) | 21 µg/mL (≈ 36.2 µM) | 85 nM | –
10 | Cc1cc(CN2CCS(=O)(=O)CC2)ccc1COc1ccccc1-c1csc(N2CC3CCC(C2)C3C(=O)O)n1 (stereo not drawn) [Compound 121] | 3.3 µg/mL (≈ 5.67 µM) | > 58 µg/mL | 280 nM | –
11 | Cc1ccc(OCc2ccc(C(=O)N3CCS(=O)(=O)CC3)cc2C)c(-c2csc(N3CCC(C(=O)O)CC3)n2)c1 [Compound 122] | 4.3 µg/mL (≈ 7.37 µM) | > 58 µg/mL | 81 nM | –
12 | Cc1ccc(OCc2ccc(C(=O)N(C)CC3CCCCC3)cc2C#N)c(-c2csc(N3CCC(C(=O)O)CC3)n2)c1 [Compound 125] | – | 14 µg/mL (≈ 23.9 µM) | 74 nM | 0.1 μg/mL
13 | Cc1cc(C(=O)N2CCCCC2)ccc1COc1ccccc1-c1csc(N2CCC(C(=O)O)C(C(F)(F)F)C2)n1 (stereo not drawn) [Compound 127] | 0.2 µg/mL (≈ 0.34 µM) | > 58 µg/mL | 400 nM | –
14 | Cc1cc(CN2CCS(=O)(=O)CC2)ccc1COc1ccc(F)cc1-c1csc(N2CCC(C(=O)O)C(C)C2)n1 (stereo not drawn) [Compound 129] | 0.15 µg/mL (≈ 0.255 µM) | > 58 µg/mL | 89 nM | –
15 | Cc1cc(CN2CCS(=O)(=O)CC2)ccc1COc1ccc(F)cc1-c1csc(N2CCC(C(=O)O)CC2C)n1 (stereo not drawn) [Compound 131] | 0.15 µg/mL (≈ 0.255 µM) | > 58 µg/mL | 88 nM | –
16 | Cc1ccc(OCc2ccc(CN3CCOCC3)cc2C)c(-c2csc(N3CCC(C(=O)O)CC3C(F)(F)F)n2)c1 (stereo not drawn) [Compound 132] | 15 µg/mL (≈ 25.4 µM) | > 58 µg/mL | 160 nM | –
17 | Cc1cc(CN2CCC(C(=O)N(C)C)CC2)ccc1COc1c(C)cccc1-c1csc(N2CCC(C(=O)O)CC2)n1 [Compound 134] | > 68 µg/mL | > 68 µg/mL | 1800 nM | –
18 | Cc1cc(CN2CCS(=O)(=O)CC2)ccc1COc1ccc(C#N)cc1-c1csc(N2CCC(C(=O)O)C(C)C2)n1 (stereo not drawn) [Compound 135] | 0.45 µg/mL (≈ 0.757 µM) | > 59 µg/mL | 2700 nM | –
19 | Cc1ccc(OCc2ccc(CN3CCS(=O)(=O)CC3)cc2C)c(-c2csc(N3C4CCC3CC(C(=O)O)C4)n2)c1 (stereo not drawn) [Compound 137] | 0.95 µg/mL (≈ 1.59 µM) | > 59 µg/mL | 64 nM | –
20 | Cc1ccc(OCc2ccc(CN3CCC(S(C)(=O)=O)CC3)cc2C)c(-c2csc(N3CCC(C(=O)O)CC3)n2)c1 [Compound 138] | > 70 µg/mL | > 70 µg/mL | 180 nM | –
21 | Cc1cc(CN2CCS(=O)(=O)CC2)ccc1COc1ccc(F)cc1-c1csc(N2C3CCC2CC(C(=O)O)C3)n1 (stereo not drawn) [Compound 139] | 0.6 µg/mL (≈ 1 µM) | > 59 µg/mL | 380 nM | –
22 | N#Cc1cc(CN2CCS(=O)(=O)CC2)ccc1COc1c(Cl)cccc1-c1csc(N2CCC(C(=O)O)CC2)n1 [Compound 140] | 1.8 µg/mL (≈ 2.99 µM) | > 60 µg/mL | 79 nM | –

Further molecules by falling EC50 [2], results first:

Row | solubility [1, 3] | solubility [1, 4] | EC50 [2] | Solubility (pH 4.5) ([1]; pH 4.5 buffer) | SMILES
23 | 0.25 µg/mL (≈ 0.436 µM) | > 57 µg/mL | 74 nM | – | Cc1cc(CN2CCS(=O)(=O)CC2)ccc1COc1ccc(F)cc1-c1csc(N2CCC(C(=O)O)CC2)n1 [Compound 111]
24 | 0.65 µg/mL (≈ 1.14 µM) | > 56 µg/mL | 71 nM | – | Cc1cc(CN2CCS(=O)(=O)CC2)ccc1COc1ccccc1-c1csc(N2CCC(C(=O)O)C(C)C2)n1 (stereo not drawn) [Compound 107]
25 | > 57 µg/mL | > 57 µg/mL | 56 nM | – | Cc1cc(CN2CCOCC2)ccc1COc1c(-c2csc(N3CCC(C(=O)O)CC3)n2)cccc1C(F)(F)F [Compound 113]
26 | 0.15 µg/mL (≈ 0.255 µM) | > 58 µg/mL | 46 nM | – | Cc1cc(C(=O)N2CCCCC2)ccc1COc1c(-c2csc(N3CCC(C(=O)O)CC3)n2)cccc1C(F)(F)F [Compound 126]
27 | 0.2 µg/mL (≈ 0.339 µM) | > 58 µg/mL | 45 nM | – | Cc1cc(CN2CCS(=O)(=O)CC2)ccc1COc1ccc(Cl)cc1-c1csc(N2CCC(C(=O)O)CC2)n1 [Compound 133]
28 | 1.6 µg/mL (≈ 2.76 µM) | > 69 µg/mL | 39 nM | – | Cc1ccc(OCc2ccc(CN3CCS(=O)(=O)CC3)cc2C#N)c(-c2csc(N3CCC(C(=O)O)CC3)n2)c1 [Compound 119]
29 | 8.9 µg/mL (≈ 15.6 µM) | > 56 µg/mL | 37 nM | – | Cc1cc(CN2CCS(=O)(=O)CC2)ccc1COc1c(C)cccc1-c1csc(N2CCC(C(=O)O)CC2)n1 [Compound 105]
30 | 0.25 µg/mL (≈ 0.44 µM) | 26 µg/mL (≈ 45.8 µM) | 30 nM | – | Cc1cc(C(=O)N2CCCCC2)ccc1COc1ccc(Cl)cc1-c1csc(N2CCC(C(=O)O)CC2C)n1 (stereo not drawn) [Compound 102]
31 | 0.3 µg/mL (≈ 0.51 µM) | > 58 µg/mL | 30 nM | – | Cc1cc(C(=O)N2CCCCC2)ccc1COc1ccccc1-c1csc(N2CCC(C(=O)O)CC2C(F)(F)F)n1 (stereo not drawn) [Compound 130]
32 | 0.35 µg/mL (≈ 0.614 µM) | > 68 µg/mL | 19 nM | – | Cc1ccc(OCc2ccc(CN3CCS(=O)(=O)CC3)cc2C)c(-c2csc(N3CCC(C(=O)O)CC3)n2)c1 [Compound 104]
33 | 0.3 µg/mL (≈ 0.528 µM) | 35 µg/mL (≈ 61.6 µM) | 17 nM | – | Cc1cc(C(=O)N2CCCCC2)ccc1COc1ccc(Cl)cc1-c1csc(N2CCC(C(=O)O)C(C)C2)n1 (stereo not drawn) [Compound 103]
34 | 31 µg/mL (≈ 53.1 µM) | > 58 µg/mL | 17 nM | – | Cc1cc(CN(C)C2CCS(=O)(=O)C2)ccc1COc1c(C)cccc1-c1csc(N2CCC(C(=O)O)CC2)n1 (stereo not drawn) [Compound 123]
35 | 0.45 µg/mL (≈ 0.755 µM) | > 59 µg/mL | 6.1 nM | – | Cc1ccc(OCc2ccc(CN3CCS(=O)(=O)CC3)cc2C)c(-c2csc(N3CC4CCC(C3)C4C(=O)O)n2)c1 (stereo not drawn) [Compound 136]
36 | 0.2 µg/mL (≈ 0.332 µM) | > 60 µg/mL | 3.9 nM | – | Cc1ccc(OCc2ccc(C(=O)N3CCCCC3)cc2C)c(-c2csc(N3CCC(C(=O)O)CC3C(F)(F)F)n2)c1 (stereo not drawn) [Compound 141]
